Results on 7 compounds are retold here after patent US9409952B2, “Peptide-compound cyclization method” (Chugai Seiyaku Kabushiki Kaisha, priority 2011, dated 2016).

Read-outs that look alike come from different tables or passages of the source. Starred links: 1 amine or outer side, 2 acyl side, 3 side chain; linkers in the order of their positions; H or OH if unused. Positions of bridges follow the written chain, without caps; N, C: chain ends. Non-standard residues stand in square brackets, D forms with d. Residues, ends and D or L forms follow the SMILES beside them. *: point of attachment. NMePhe(3-Cl) = CN[C@@H](Cc1cccc(Cl)c1)C(=O)O; NMeF = CN[C@@H](Cc1ccccc1)C(=O)O; hPhe = N[C@@H](CCc1ccccc1)C(=O)O; NMeβAla = CN(CCC(=O)[*:2])[*:1]; NMeL = CN[C@@H](CC(C)C)C(=O)O; NMeV = CN[C@H](C(=O)O)C(C)C; NMeA = CN[C@@H](C)C(=O)O; Piperidide = C1CCN(*)CC1; dNMeA = CN[C@H](C)C(=O)O; β3hA = C[C@H](N)CC(=O)O

A short description of data set [1]: PAMPA (parallel artificial membrane permeability assay). It is filed as in vitro ADME. As to conditions: for Papp at 18 hours, 50 µM: PAMPA. The method in brief:
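Artificial membrane was 10% (w/v) egg lecithin plus 0.5% (w/v) cholesterol in dodecane on a PVDF filter. A 10 mM DMSO stock was added at 0.5% (v/v) to donor buffer (50 mM MOPSO, pH 6.5, 5.0% glycocholic acid). After 18 h at 37 °C, LC/MS or LC/UV gave donor and acceptor levels for Pe.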

Data set [2] in a line: Metabolic stability in human hepatic microsome. It is filed as in vitro ADME. The note with it: microsomes.
[3] abbreviates: membrane permeation rate (Pe), 50 mM MOPSO buffer pH 6.5 with 5.0% glycocholic acid, 37° C., 18 hours, read-out: iPAMPA Pe.
Setting [4] is: pH 7.4, human hepatic microsome, NADPH(+), read-out: CL NADPH(+).

Regarding `CC[C@H](C)[C@@H]1NC(=O)[C@H](CC(C)C)N(C)C(=O)[C@H](C)N(C)C(=O)[C@@H](C)NC(=O)C[C@@H](C(=O)N2CCCCC2)NC(=O)[C@H](CC(C)C)N(C)C(=O)[C@H](C)N(C)C(=O)[C@H]([C@@H](C)O)NC(=O)[C@H](Cc2ccccc2)N(C)C(=O)[C@H](Cc2ccccc2)N(C)C1=O` [DP-136] ([dA][NMeA][NMeL]I[NMeF][NMeF]T[NMeA][NMeL]D-Piperidide; lactam N-10), the Papp at 18 hours, 50 µM in data set [1] (setting [3]) worked out at 35 ×10⁻⁶ cm/s. Also, the microsomal CLint at 1 uM in data set [2] (setting [4]) is 147 µL/min/mg.

As to `CC[C@H](C)[C@@H]1NC(=O)[C@H](C)N(C)C(=O)[C@H]([C@@H](C)O)NC(=O)[C@H](C(C)C)N(C)C(=O)[C@H](C)N(C)C(=O)[C@H](Cc2ccccc2)NC(=O)[C@H](C)NC(=O)C[C@@H](C(=O)N(C)[C@@H](Cc2ccccc2)C(=O)N[C@@H](C)C(=O)N2CCCCC2)NC(=O)[C@H](C)N(C)C(=O)[C@H](CC(C)C)N(C)C1=O` [DP-288] (AF[NMeA][NMeV]T[NMeA]I[NMeL][NMeA]D[NMeF]A-Piperidide; lactam N-10), the Papp at 18 hours, 50 µM in data set [1] (pH 6.5) came to 18 ×10⁻⁶ cm/s. Besides, the microsomal CLint at 1 uM in data set [2] (human, pH 7.4, CL NADPH(+)) came to 80 µL/min/mg.

On to `CC[C@H](C)[C@@H]1NC(=O)[C@H](C)N(C)C(=O)[C@@H](C)N(C)C(=O)C[C@H](C)NC(=O)[C@H](CC(C)C)N(C)C(=O)[C@H](C)N(C)C(=O)[C@H](Cc2cccc(Cl)c2)N(C)C(=O)[C@H]([C@@H](C)O)NC(=O)[C@H](Cc2cccc(Cl)c2)N(C)C(=O)[C@H](CC(C)C)N(C)C1=O` [DP-811] (cyclo(I[NMeL][NMePhe(3-Cl)]T[NMePhe(3-Cl)][NMeA][NMeL][β3hA][dNMeA][NMeA])), for which the “iPAMPA Pe” value in data set [1] (membrane permeation rate (Pe), 50 mM MOPSO buffer pH 6.5 with 5.0% glycocholic acid, 37° C., 18 hours) is given as 7.0E−05. Moreover, the microsomal CLint at 1 uM in data set [2] (setting [4]) came to 241 µL/min/mg.

With `CC[C@H](C)[C@@H]1NC(=O)[C@H](CC(C)C)NC(=O)[C@H](C(C)C)NC(=O)[C@H](CC(C)C)N(C)C(=O)[C@H](CC(C)C)NC(=O)[C@H](CCc2ccccc2)NC(=O)[C@H]([C@@H](C)O)NC(=O)[C@H](C)N(C)C(=O)[C@H](CC(C)C)NC(=O)[C@H](C)N(C)C(=O)C[C@@H](C(=O)N2CCCCC2)NC1=O` [DP-728] ([NMeA]L[NMeA]T[hPhe]L[NMeL]VLID-Piperidide; lactam N-11), the Papp at 18 hours, 50 µM in data set [1] (setting [3]) was 6.5 ×10⁻⁶ cm/s. Moreover, the microsomal CLint at 1 uM in data set [2] (setting [4]) was determined as 42 µL/min/mg.

Turning to `CC(C)[C@@H]1NC(=O)[C@H](C)N(C)C(=O)[C@@H](C)N(C)C(=O)C[C@@H](C(=O)N(C)[C@@H](Cc2ccccc2)C(=O)N(C)[C@@H](Cc2ccccc2)C(=O)N[C@@H](C)C(=O)N2CCCCC2)NC(=O)[C@H](C)N(C)C(=O)[C@H](C)N(C)C(=O)[C@H]([C@@H](C)O)NC(=O)[C@H](C)N(C)C(=O)[C@H](Cc2ccccc2)N(C)C(=O)[C@H](C)N(C)C1=O` [DP-509] ([dNMeA][NMeA]V[NMeA][NMeF][NMeA]T[NMeA][NMeA]D[NMeF][NMeF]A-Piperidide; lactam N-10), the Papp at 18 hours, 50 µM in data set [1] (setting [3]) was 5.1 ×10⁻⁶ cm/s. Besides, the microsomal CLint at 1 uM in data set [2] (setting [4]) is 30 µL/min/mg.

Take `CC[C@H](C)[C@@H]1NC(=O)[C@H](C)N(C)C(=O)[C@H]([C@@H](C)O)NC(=O)[C@H](C(C)C)N(C)C(=O)[C@H](CC(C)C)NC(=O)[C@H](CC(C)C)N(C)C(=O)[C@@H](C)N(C)C(=O)C[C@@H](C(=O)N2CCCCC2)NC(=O)[C@H](Cc2ccccc2)NC(=O)[C@H](C)NC(=O)[C@H](Cc2ccccc2)N(C)C1=O` [DP-242] ([dNMeA][NMeL]L[NMeV]T[NMeA]I[NMeF]AFD-Piperidide; lactam N-11): in data set [1] (setting [3]), the Papp at 18 hours, 50 µM turned out to be 29 ×10⁻⁶ cm/s. In addition, in data set [2] (setting [4]), the microsomal CLint at 1 uM amounted to 43 µL/min/mg.

As for `CC(C)C[C@H]1C(=O)N[C@@H](Cc2ccccc2)C(=O)N(C)[C@@H](C(C)C)C(=O)N[C@@H]([C@@H](C)O)C(=O)N(C)[C@@H](C)C(=O)NCC(=O)N(C)[C@@H](Cc2ccccc2)C(=O)N[C@H](C(=O)N(C)[C@@H](Cc2ccccc2)C(=O)N[C@@H](C)C(=O)N2CCCCC2)CC(=O)N(C)CCC(=O)N[C@@H](C(C)C)C(=O)N1C` [DP-352] ([NMeβAla]V[NMeL]F[NMeV]T[NMeA]G[NMeF]D[NMeF]A-Piperidide; lactam N-10), the Papp at 18 hours, 50 µM in data set [1] (setting [3]) came out at 25 ×10⁻⁶ cm/s. Further, the microsomal CLint at 1 uM in data set [2] (setting [4]) turned out to be 66 µL/min/mg.
